Results reported in article PMC6597960 (Journal of Alzheimer's Disease Reports, 2019).
Peptide text beside a SMILES is read from it.

Key:
[1] = system: SH-SY5Y neuroblastoma cell line; experiment: Cell cytotoxicity assay; format: cell-based; details: up to a concentration of 20 μM; 72 h; CellTiterGlo
[2] = system: APPSWE/Tg2576 mice; experiment: Efficacy in 5-month-old AD model mice: Y-maze spontaneous alternation; format: in vivo, mouse; details: 5-month-old mice, 100 μg s.c. biweekly for 5 months, n = 12

Compound	Toxicity in SH-SY5Y cells [1]	Y-maze % alternation, after vs before treatment [2]
C[C@H](O)[C@@H](NC(=O)[C@@H](Cc1c[nH]c2ccccc12)NC(=O)[C@@H](CCC(=O)O)NC(=O)CNC(=O)[C@@H](CCCCN)NC(=O)[C@H](N)Cc1c[nH]c2ccccc12)C(=O)NCC(=O)N[C@H](CCCNC(=N)N)C(=O)NCCC(=O)NCCCC[C@H](NC(=O)CCNC(=O)[C@@H](CCCNC(=N)N)NC(=O)CNC(=O)[C@H](NC(=O)[C@@H](Cc1c[nH]c2ccccc12)NC(=O)[C@@H](CCC(=O)O)NC(=O)CNC(=O)[C@@H](CCCCN)NC(=O)[C@H](N)Cc1c[nH]c2ccccc12)[C@H](C)O)C(=O)NCCCC[C@H](NC(=O)[C@H](CCCCNC(=O)CCNC(=O)[C@@H](CCCNC(=N)N)NC(=O)CNC(=O)[C@H](NC(=O)[C@@H](Cc1c[nH]c2ccccc12)NC(=O)[C@@H](CCC(=O)O)NC(=O)CNC(=O)[C@@H](CCCCN)NC(=O)[C@H](N)Cc1c[nH]c2ccccc12)[C@H](C)O)NC(=O)CCNC(=O)[C@@H](CCCNC(=N)N)NC(=O)CNC(=O)[C@H](NC(=O)[C@@H](Cc1c[nH]c2ccccc12)NC(=O)[C@@H](CCC(=O)O)NC(=O)CNC(=O)[C@@H](CCCCN)NC(=O)[C@H](N)Cc1c[nH]c2ccccc12)[C@H](C)O)C(=O)N[C@@H](CS)C(=O)O [RI-peptide] (HELM PEPTIDE1{[dW].[dK].G.[dE].[dW].[dT].G.[dR].[bAla].K.K.C}|PEPTIDE2{[dW].[dK].G.[dE].[dW].[dT].G.[dR].[bAla].K}|PEPTIDE3{[dW].[dK].G.[dE].[dW].[dT].G.[dR].[bAla]}|PEPTIDE4{[dW].[dK].G.[dE].[dW].[dT].G.[dR].[bAla]}$PEPTIDE1,PEPTIDE4,10:R3-9:R2|PEPTIDE1,PEPTIDE2,11:R3-10:R2|PEPTIDE2,PEPTIDE3,10:R3-9:R2$$$V2.0; N-terminus and C-terminus assumed)	not toxic	–
[FFVLK]4	–	improved % alternation results after treatment
